≈ marks a conversion by molar mass, not a printed value.
Columns and labels:
Assay in all cases: in vitro antibacterial evaluation, MIC by broth dilution
Type in all cases: cell-based
Enterococcus sp. = details: broth dilution, 18 hours at 35° C.; for MIC Enterococcus faecalis (ATCC 29212): strain ATCC 29212; for MIC Enterococcus faecalis (GC 2242): strain GC 2242; for MIC Enterococcus faecium (GC 2243): strain GC 2243; for MIC Enterococcus faecalis (GC 2691): strain GC 2691; for MIC Enterococcus faecalis (GC 3059): strain GC 3059; for MIC Enterococcus faecalis (GC 4552): strain GC 4552; for MIC Enterococcus faecalis (GC 4553): strain GC 4553; for MIC Enterococcus faecalis (GC 4554): strain GC 4554; for MIC Enterococcus faecium (GC 4556): strain GC 4556; for MIC Enterococcus faecium (GC 4557): strain GC 4557; for MIC Enterococcus avium (GC 4558): strain GC 4558; for MIC Enterococcus faecalis (GC 6189): strain GC 6189
Description: (§1) Methods for in vitro Antibacterial Evaluation (Table 1)
(§2) The minimum inhibitory concentration (MIC), the lowest concentration of the antibiotic which inhibits growth of the test organism, is determined by the broth dilution method using Muller-Hinton II […] (Baltimore Biological Laboratories) following the recommendations of the National Committee for Clinical Laboratory Standards [Methods for dilution antimicrobial susceptibility tests for bacteria that grow aerobically, approved standard M7-A2, National Committee for Clinical Laboratory Standards, Villanova, Pa.].
(§3) An inoculum level of 5×10^5 CFU/mL, and a range of antibiotic concentrations (64-0.06 μg/mL) is used. […] The test organisms include a spectrum of Gram-positive bacteria comprised of Staphylococcus sp., Streptococcus sp. and Enterococcus sp. These organisms include recent clinical isolates that are resistant to methicillin, penicillin and/or vancomycin.

Staphylococcus sp. = details: broth dilution, 18 hours at 35° C.; for MIC Staphylococcus aureus (ATCC 29213): strain ATCC 29213; for MIC Staphylococcus aureus (GC 1131): strain GC 1131; for MIC Staphylococcus aureus (GC 3051): strain GC 3051; for MIC Staphylococcus aureus (GC 3053): strain GC 3053; for MIC Staphylococcus aureus (GC 4541): strain GC 4541; for MIC Staphylococcus aureus (GC 4542): strain GC 4542; for MIC Staphylococcus aureus-SMITH (GC 4543): strain GC 4543; for MIC Staphylococcus aureus (GC 4544): strain GC 4544; for MIC Staphylococcus aureus (GC 4545): strain GC 4545; for MIC Staphylococcus haemolyticus (GC 4546): strain GC 4546; for MIC Coagulase Negative Staphylococcus (GC 4547): strain GC 4547; for MIC Coagulase Negative Staphylococcus (GC 4548): strain GC 4548; for MIC Coagulase Negative Staphylococcus (GC 4549): strain GC 4549; for MIC Coagulase Negative Staphylococcus (GC 4551): strain GC 4551; for MIC Coagulase Negative Staphylococcus (GC 6257): strain GC 6257
Description: as §1, §2, §3

Streptococcus sp. = details: broth dilution, 18 hours at 35° C.; for MIC Streptococcus pneumoniae (ATCC 6301): strain ATCC 6301; for MIC Streptococcus pneumoniae (GC 1894): strain GC 1894; for MIC Streptococcus pyogenes (GC 4563): strain GC 4563; for MIC Streptococcus agalactiae (GC 4564): strain GC 4564; for MIC Streptococcus pneumoniae (GC 4565): strain GC 4565
Description: as §1, §2, §3

Escherichia coli = details: broth dilution, 18 hours at 35° C.; for MIC Escherichia coli (ATCC 25922): strain ATCC 25922; for MIC Escherichia coli (GC 4559): strain GC 4559; for MIC Escherichia coli (GC 4560): strain GC 4560
In short: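 Broth dilution in Muller-Hinton II medium per NCCLS standard M7-A2, with an inoculum of 5×10^5 CFU/mL and antibiotic tested over 64-0.06 μg/mL. MIC was taken as the lowest concentration inhibiting visible growth.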

SMILES	MIC Enterococcus faecalis (ATCC 29212) (Enterococcus sp.) [µg/mL]	MIC Enterococcus faecalis (GC 2242) (Enterococcus sp.) [µg/mL]	MIC Enterococcus faecium (GC 2243) (Enterococcus sp.) [µg/mL]	MIC Enterococcus faecalis (GC 2691) (Enterococcus sp.) [µg/mL]	MIC Enterococcus faecalis (GC 3059) (Enterococcus sp.) [µg/mL]	MIC Enterococcus faecalis (GC 4552) (Enterococcus sp.) [µg/mL]	MIC Enterococcus faecalis (GC 4553) (Enterococcus sp.) [µg/mL]	MIC Enterococcus faecalis (GC 4554) (Enterococcus sp.) [µg/mL]	MIC Enterococcus faecium (GC 4556) (Enterococcus sp.) [µg/mL]	MIC Enterococcus faecium (GC 4557) (Enterococcus sp.) [µg/mL]	MIC Enterococcus avium (GC 4558) (Enterococcus sp.) [µg/mL]	MIC Enterococcus faecalis (GC 6189) (Enterococcus sp.) [µg/mL]	MIC Staphylococcus aureus (ATCC 29213) (Staphylococcus sp.) [µg/mL]	MIC Staphylococcus aureus (GC 1131) (Staphylococcus sp.) [µg/mL]	MIC Staphylococcus aureus (GC 3051) (Staphylococcus sp.) [µg/mL]	MIC Staphylococcus aureus (GC 3053) (Staphylococcus sp.) [µg/mL]	MIC Staphylococcus aureus (GC 4541) (Staphylococcus sp.) [µg/mL]	MIC Staphylococcus aureus (GC 4542) (Staphylococcus sp.) [µg/mL]	MIC Staphylococcus aureus-SMITH (GC 4543) (Staphylococcus sp.) [µg/mL]	MIC Staphylococcus aureus (GC 4544) (Staphylococcus sp.) [µg/mL]	further results
CC(c1ccccc1)C1NC(=O)CNC(=O)C(CO)NC(=O)C(C(O)C2CNC(=N)N2C2OC(CO)C(O)C(O)C2O)NC(=O)C(C(O)C2CNC(=N)N2)NC(=O)C(Cc2ccc3oc(=O)[nH]c3c2)NC1=O (stereo not drawn) [Example 22, Cyclo[3-(2,3-dihydro-2-oxo-1,3-benzoxazol-5-yl)alanyl-3-(2-iminoimidazolidin-4-yl)seryl-3-(3-hexopyranosyl-2-iminoimidazolidin-4-yl)serylserylglycyl-β-methylphenylalanyl]]	>128	>128	>128	>128	>128	>128	>128	>128	>128	64 (≈ 63.2 µM)	>128	>128	>128	>128	>128	>128	>128	>128	>128	>128	MIC Staphylococcus aureus (GC 4545) (Staphylococcus sp.): >128 µg/mL; MIC Staphylococcus haemolyticus (GC 4546) (Staphylococcus sp.): >128 µg/mL; MIC Coagulase Negative Staphylococcus (GC 4547) (Staphylococcus sp.): >128 µg/mL; MIC Coagulase Negative Staphylococcus (GC 4548) (Staphylococcus sp.): 128 µg/mL (≈ 126 µM); MIC Coagulase Negative Staphylococcus (GC 4549) (Staphylococcus sp.): 64 µg/mL (≈ 63.2 µM); MIC Coagulase Negative Staphylococcus (GC 4551) (Staphylococcus sp.): >128 µg/mL; MIC Coagulase Negative Staphylococcus (GC 6257) (Staphylococcus sp.): 128 µg/mL (≈ 126 µM); MIC Streptococcus pneumoniae (ATCC 6301) (Streptococcus sp.): 8 µg/mL (≈ 7.91 µM); MIC Streptococcus pneumoniae (GC 1894) (Streptococcus sp.): 8 µg/mL (≈ 7.91 µM); MIC Streptococcus pyogenes (GC 4563) (Streptococcus sp.): 32 µg/mL (≈ 31.6 µM); MIC Streptococcus agalactiae (GC 4564) (Streptococcus sp.): 32 µg/mL (≈ 31.6 µM); MIC Streptococcus pneumoniae (GC 4565) (Streptococcus sp.): 8 µg/mL (≈ 7.91 µM); MIC Escherichia coli (ATCC 25922) (Escherichia coli): >128 µg/mL; MIC Escherichia coli (GC 4559) (Escherichia coli): >128 µg/mL; MIC Escherichia coli (GC 4560) (Escherichia coli): >128 µg/mL
CC(c1ccccc1)C1NC(=O)CNC(=O)C(CO)NC(=O)C(C(O)C2CNC(=N)N2C2OC(CO)C(O)C(O)C2O)NC(=O)C(C(O)C2CNC(=N)N2)NC(=O)C(Cc2ccc3oc(-c4ccc(OCc5ccccc5)cc4)nc3c2)NC1=O (stereo not drawn) [Example 31, Cyclo[3-[2-[4-(phenylmethoxy)phenyl]-1,3-benzoxazol-5-yl]alanyl-3-(2-iminoimidazolidin-4-yl)seryl-3-(3-hexopyranosyl-2-iminoimidazolidin-4-yl)serylserylglycyl-β-methyl-phenylalanyl]]	64 (≈ 54.3 µM)	64 (≈ 54.3 µM)	32 (≈ 27.2 µM)	64 (≈ 54.3 µM)	128 (≈ 109 µM)	128 (≈ 109 µM)	16 (≈ 13.6 µM)	128 (≈ 109 µM)	4 (≈ 3.39 µM)	4 (≈ 3.39 µM)	8 (≈ 6.79 µM)	64 (≈ 54.3 µM)	16 (≈ 13.6 µM)	16 (≈ 13.6 µM)	16 (≈ 13.6 µM)	16 (≈ 13.6 µM)	16 (≈ 13.6 µM)	8 (≈ 6.79 µM)	16 (≈ 13.6 µM)	16 (≈ 13.6 µM)	MIC Staphylococcus aureus (GC 4545) (Staphylococcus sp.): 16 µg/mL (≈ 13.6 µM); MIC Staphylococcus haemolyticus (GC 4546) (Staphylococcus sp.): 8 µg/mL (≈ 6.79 µM); MIC Coagulase Negative Staphylococcus (GC 4547) (Staphylococcus sp.): 8 µg/mL (≈ 6.79 µM); MIC Coagulase Negative Staphylococcus (GC 4548) (Staphylococcus sp.): 8 µg/mL (≈ 6.79 µM); MIC Coagulase Negative Staphylococcus (GC 4549) (Staphylococcus sp.): 16 µg/mL (≈ 13.6 µM); MIC Coagulase Negative Staphylococcus (GC 4551) (Staphylococcus sp.): 16 µg/mL (≈ 13.6 µM); MIC Coagulase Negative Staphylococcus (GC 6257) (Staphylococcus sp.): 4 µg/mL (≈ 3.39 µM); MIC Streptococcus pneumoniae (ATCC 6301) (Streptococcus sp.): 16 µg/mL (≈ 13.6 µM); MIC Streptococcus pneumoniae (GC 1894) (Streptococcus sp.): 32 µg/mL (≈ 27.2 µM); MIC Streptococcus pyogenes (GC 4563) (Streptococcus sp.): 8 µg/mL (≈ 6.79 µM); MIC Streptococcus agalactiae (GC 4564) (Streptococcus sp.): 32 µg/mL (≈ 27.2 µM); MIC Streptococcus pneumoniae (GC 4565) (Streptococcus sp.): 64 µg/mL (≈ 54.3 µM); MIC Escherichia coli (ATCC 25922) (Escherichia coli): >128 µg/mL; MIC Escherichia coli (GC 4559) (Escherichia coli): >128 µg/mL; MIC Escherichia coli (GC 4560) (Escherichia coli): 32 µg/mL (≈ 27.2 µM)
Cc1ccc(OC(=O)Nc2cc(CC3NC(=O)C(C(C)c4ccccc4)NC(=O)CNC(=O)C(CO)NC(=O)C(C(O)C4CNC(=N)N4C4OC(CO)C(O)C(O)C4O)NC(=O)C(C(O)C4CNC(=N)N4)NC3=O)ccc2O)cc1 (stereo not drawn) [Example 19, Cyclo[glycyl-β-methylphenylalanyl-3-[[(4-methylphenoxy)carbonyl]amino]tyrosyl-3-(2-iminoimidazolidin-4-yl)seryl-3-(3-hexopyranosyl-2-iminoimidazolidin-4-yl)serylseryl]]	>128	>128	>128	>128	>128	>128	128 (≈ 114 µM)	>128	>128	128 (≈ 114 µM)	128 (≈ 114 µM)	>128	>128	>128	>128	>128	>128	>128	>128	>128	MIC Staphylococcus aureus (GC 4545) (Staphylococcus sp.): >128 µg/mL; MIC Staphylococcus haemolyticus (GC 4546) (Staphylococcus sp.): >128 µg/mL; MIC Coagulase Negative Staphylococcus (GC 4547) (Staphylococcus sp.): >128 µg/mL; MIC Coagulase Negative Staphylococcus (GC 4548) (Staphylococcus sp.): >128 µg/mL; MIC Coagulase Negative Staphylococcus (GC 4549) (Staphylococcus sp.): 128 µg/mL (≈ 114 µM); MIC Coagulase Negative Staphylococcus (GC 4551) (Staphylococcus sp.): >128 µg/mL; MIC Coagulase Negative Staphylococcus (GC 6257) (Staphylococcus sp.): >128 µg/mL; MIC Streptococcus pneumoniae (ATCC 6301) (Streptococcus sp.): 128 µg/mL (≈ 114 µM); MIC Streptococcus pneumoniae (GC 1894) (Streptococcus sp.): 64 µg/mL (≈ 57.1 µM); MIC Streptococcus pyogenes (GC 4563) (Streptococcus sp.): >128 µg/mL; MIC Streptococcus agalactiae (GC 4564) (Streptococcus sp.): >128 µg/mL; MIC Streptococcus pneumoniae (GC 4565) (Streptococcus sp.): 128 µg/mL (≈ 114 µM); MIC Escherichia coli (ATCC 25922) (Escherichia coli): 128 µg/mL (≈ 114 µM); MIC Escherichia coli (GC 4559) (Escherichia coli): 128 µg/mL (≈ 114 µM); MIC Escherichia coli (GC 4560) (Escherichia coli): 128 µg/mL (≈ 114 µM)

— patent US6914045B2, “Glycopeptide antibiotics” (Wyeth Holdings Corporation, priority 2001, dated 2005)
